Several values for one entry are separate records, joined by “and”; a condition that tells them apart may be missing. Identical values can stand only once.
Biological target: T1, Adenosine receptor A1 (Rattus norvegicus, UniProt P25099)
T1 sequence (P25099 whole entry): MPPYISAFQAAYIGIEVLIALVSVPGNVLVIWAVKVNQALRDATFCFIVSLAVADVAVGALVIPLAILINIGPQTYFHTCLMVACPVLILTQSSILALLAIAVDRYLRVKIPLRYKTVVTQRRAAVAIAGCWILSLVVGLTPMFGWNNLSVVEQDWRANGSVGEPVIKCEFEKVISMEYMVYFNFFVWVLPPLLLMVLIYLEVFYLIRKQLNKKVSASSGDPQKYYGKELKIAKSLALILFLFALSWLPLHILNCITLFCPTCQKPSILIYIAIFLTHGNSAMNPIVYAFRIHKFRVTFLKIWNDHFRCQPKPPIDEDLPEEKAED
Assay: Evaluated for binding affinity against Adenosine A1 receptor

Structure (SMILES) | IC50 | Ki [nM]
CCCc1ccccc1Nc1ncnc2c1ncn2C1O[C@H](CO)[C@@H](O)[C@H]1O (stereo partly specified) | 1.2 nM | 
Cc1cccc(Nc2ncnc3c2ncn3C2O[C@H](CO)[C@@H](O)[C@H]2O)c1 (stereo partly specified) | 26.9 nM | 
OC[C@H]1OC(n2cnc3c(Nc4ccccc4F)ncnc32)[C@H](O)[C@@H]1O (stereo partly specified) | 3.98 nM | 
COc1ccc(Nc2ncnc3c2ncn3[C@@H]2O[C@H](CO)[C@@H](O)[C@H]2O)cc1 | 8.91 nM and 4.57 nM | 
OC[C@H]1OC(n2cnc3c(Nc4cccc(F)c4)ncnc32)[C@H](O)[C@@H]1O (stereo partly specified) | 1 nM | 
CCCn1c(=O)c2nc(Cc3ccccc3)[nH]c2n(CCC)c1=O |  | 891
Cc1ccccc1Nc1ncnc2c1ncn2C1O[C@H](CO)[C@@H](O)[C@H]1O (stereo partly specified) | 8.91 nM | 
Cn1c(=O)c2nc(-c3cccc(F)c3)[nH]c2n(C)c1=O |  | 2.4
CCCn1c(=O)c2[nH]c(-c3ccccc3)nc2n(CCC)c1=O |  | 11
COc1ccccc1Nc1ncnc2c1ncn2C1O[C@H](CO)[C@@H](O)[C@H]1O (stereo partly specified) | 85.1 nM | 
OC[C@H]1OC(n2cnc3c(Nc4ccc(F)cc4)ncnc32)[C@H](O)[C@@H]1O (stereo partly specified) | 2 nM | 
COc1ccccc1-c1nc2c([nH]1)c(=O)n(C)c(=O)n2C |  | 191
CCCn1c(=O)c2[nH]c(CC3CCCCC3)nc2n(CCC)c1=O |  | 38.9
Cn1c(=O)c2[nH]c(-c3ccccc3F)nc2n(C)c1=O |  | 6.76
CCCn1c(=O)c2nc(-c3ccc(OC)cc3)[nH]c2n(CCC)c1=O |  | 4.57
Cn1c(=O)c2[nH]c(-c3ccc(F)cc3)nc2n(C)c1=O |  | 1.82
OC[C@H]1O[C@@H](n2cnc3c(Nc4ccccc4)ncnc32)[C@H](O)[C@@H]1O [N6-PHENYLADENOSINE] | 3.31 nM | 
COc1cccc(Nc2ncnc3c2ncn3C2O[C@H](CO)[C@@H](O)[C@H]2O)c1 (stereo partly specified) | 46.8 nM | 
OC[C@H]1OC(n2cnc3c(Nc4ccc(Cl)cc4)ncnc32)[C@H](O)[C@@H]1O (stereo partly specified) | 2.19 nM | 
Cc1ccc(Nc2ncnc3c2ncn3C2O[C@H](CO)[C@@H](O)[C@H]2O)cc1 (stereo partly specified) | 4.9 nM | 
OC[C@H]1OC(n2cnc3c(NCC4CCCCC4)ncnc32)[C@H](O)[C@@H]1O (stereo partly specified) | 39.8 nM | 
Cc1ccc(-c2nc3c([nH]2)c(=O)n(C)c(=O)n3C)cc1 |  | 0.513
Cn1c(=O)c2[nH]c(-c3ccc(Cl)cc3)nc2n(C)c1=O |  | 0.646
Cc1cccc(-c2nc3c([nH]2)c(=O)n(C)c(=O)n3C)c1 |  | 5.37
CCCc1ccccc1Nc1ncnc2c1ncn2C1OC(CO)[C@@H](O)[C@H]1O (single isomer, unassigned) | 52.5 nM | 
OC[C@H]1O[C@@H](n2cnc3c(NC4CC4)ncnc32)[C@H](O)[C@@H]1O | 2.09 nM | 
